The source made the active and inactive calls. No cut-off for these calls is given here.
Key:
PC-3 = assay: Antiproliferative activity against human PC3 cells assessed as decrease in cell viability measured after 72 hrs by MTT assay; format: functional, cell-based; settings: PC-3, 72 h
HeLa [1] = assay: Antiproliferative activity against human HeLa cells assessed as decrease in cell viability measured after 72 hrs by MTT assay; format: functional, cell-based
MCF7 = assay: Antiproliferative activity against human MCF7 cells assessed as decrease in cell viability measured after 72 hrs by MTT assay; format: functional, cell-based; settings: MCF7, 72 h
Jurkat = assay: Antiproliferative activity against human Jurkat T cells assessed as decrease in cell viability measured after 24 to 72 hrs by MTT assay; format: functional, cell-based
IEC-6 [2] = assay: Cytotoxicity against rat IEC-6 cells assessed as reduction in cell viability measured after 24 to 72 hrs by MTT assay; format: cell-based; settings: for Activity: rat, iec-6
IEC-6 [3] = assay: Induction of apoptosis in rat IEC-6 cells assessed as effect on PARP level at 0.1 to 0.6 uM after 24 hrs by FACS analysis; format: cell-based; settings: iec-6, 24 h
HeLa [4] = assay: Induction of ROS generation in human HeLa cells at 0.1 to 0.6 uM measured after 24 hrs by H2DC-DA probe-based FACS analysis; format: functional, cell-based
IEC-6 [5] = assay: Cytotoxicity against rat IEC-6 cells assessed as reduction in cell viability at 0.1 to 0.6 uM measured after 24 to 72 hrs by MTT assay; format: cell-based; settings: iec-6, 0.6 µM
HeLa [6] = assay: Cell cycle arrest in human HeLa cells assessed as accumulation at G0/G1-phase at 0.1 to 0.6 uM after 24 hrs by propidium iodide staining-based FACS analysis; format: functional
HeLa [7] = assay: Down regulation of ERK expression in human HeLa cells at 0.1 to 0.6 uM after 24 hrs by FACS analysis; format: functional, cell-based
HeLa [8] = assay: Induction of apoptosis in human HeLa cells assessed as increase in caspase 3 level at 0.1 to 0.6 uM after 24 hrs by FACS analysis; format: functional, cell-based
IEC-6 [9] = assay: Induction of apoptosis in rat IEC-6 cells assessed as increase in hypodiploid nuclei at 0.1 to 0.6 uM measured after 24 hrs by propidium iodide staining-based FACS analysis; format: cell-based; settings: iec-6, 24 h
IEC-6 [10] = assay: Cell cycle arrest in rat IEC-6 cells assessed as accumulation at G0/G1-phase at 0.1 to 0.6 uM after 24 hrs by propidium iodide staining-based FACS analysis; format: ADME; settings: iec-6, 24 h
HeLa [11] = assay: Induction of apoptosis in human HeLa cells assessed as increase in hypodiploid nuclei at 0.3 to 0.6 uM measured after 24 hrs by propidium iodide staining-based FACS analysis; format: functional, cell-based
HeLa [12] = assay: Cell cycle arrest in human HeLa cells assessed as decrease in accumulation at G2-phase at 0.1 to 0.6 uM after 24 hrs by propidium iodide staining-based FACS analysis; format: functional
IEC-6 [13] = assay: Cell cycle arrest in rat IEC-6 cells assessed as increase in accumulation at S phase at 0.1 to 0.6 uM after 24 hrs by propidium iodide staining based FACS analysis; format: ADME; settings: iec-6, 24 h
IEC-6 [14] = assay: Down regulation of ERK expression in rat IEC-6 cells at 0.6 uM after 24 hrs by FACS analysis; format: ADME, cell-based; settings: iec-6, 24 h
IEC-6 [15] = assay: Cell cycle arrest in rat IEC-6 cells assessed as decrease in accumulation at G2-phase at 0.1 to 0.6 uM after 24 hrs by propidium iodide staining-based FACS analysis; format: ADME; settings: iec-6, 24 h
HeLa [16] = assay: Induction of apoptosis in human HeLa cells assessed as effect on PARP level at 0.1 to 0.6 uM after 24 hrs by FACS analysis; format: functional, cell-based
IEC-6 [17] = assay: Induction of ROS generation in rat IEC-6 cells at 0.1 to 0.6 uM measured after 24 hrs by H2DCF-DA staining-based FACS analysis; format: cell-based; settings: iec-6, 24 h
[18] = Inhibition of ERK phosphorylation in rat IEC-6 cells at 0.6 uM after 24 hrs by FACS analysis; format: cell-based; settings: iec-6, 24 h
HeLa [19] = assay: Inhibition of ERK phosphorylation in human HeLa cells at 0.6 uM after 24 hrs by FACS analysis; format: cell-based
IEC-6 [20] = assay: Induction of apoptosis in rat IEC-6 cells assessed as increase in caspase 3 level at 0.1 to 0.6 uM after 24 hrs by FACS analysis; format: cell-based; settings: iec-6, 24 h

SMILES | IC50 (PC-3) [µM] | IC50 (HeLa [1]) [µM] | IC50 (MCF7) [µM] | IC50 (Jurkat) [µM] | also measured
CN(CCc1ccc(-c2ccccc2)cc1)Cc1cn(C)c2ccc(C(=O)N3CCCCC3)cc12 | 52.2 | 73.2 | 3.04 | 60.4 | Activity (IEC-6 [2]): Non-Toxic
CCCn1cc(CNCCc2ccc(-c3ccccc3)cc2)c2cc(CNc3ccc(F)cc3)ccc21 | 5.41 | 7.23 | 1.26 | 6.21 | Activity (IEC-6 [2]): Toxic
N#Cc1c(Oc2ccc(F)c(NC(=O)Cc3cccc(C(F)(F)F)c3)c2)ccc2nc(NC(=O)C3CC3)sc12 | – | – | – | – | Activity (IEC-6 [3]): Non-Toxic; Activity (HeLa [4]): Active; Activity (IEC-6 [5]): Toxic; Activity (HeLa [6]): Active; Activity (HeLa [7]): Active; Activity (HeLa [8]): Active; Activity (IEC-6 [9]): Toxic; Activity (IEC-6 [10]): Toxic; Activity (HeLa [11]): Active; Activity (HeLa [12]): Active; Activity (IEC-6 [13]): Toxic; Activity (IEC-6 [14]): Toxic; Activity (IEC-6 [15]): Toxic; Activity (HeLa [16]): inactive; Activity (IEC-6 [17]): Toxic; inhibition (INH) [18]: Active; inhibition (HeLa [19]): Active; Activity (IEC-6 [20]): Toxic
Cc1ccc(NC(=O)c2ccc3c(c2)c(CN(C)CCc2ccc(-c4ccccc4)cc2)cn3C)cc1 | 50.3 | 69.8 | 3.04 | 68 | Activity (IEC-6 [2]): Non-Toxic
CC(=O)N(CCc1ccc(-c2ccccc2)cc1)Cc1cn(C)c2ccc(C(=O)Nc3ccc(F)cc3)cc12 | > 100 | > 100 | 82.6 | > 100 | –
CCNC(=O)c1ccc2c(c1)c(CN(C)CCc1ccc(-c3ccccc3)cc1)cn2C | 87.5 | > 100 | 12.2 | 79.2 | –
Cn1cc(CNCCc2ccc(-c3ccccc3)cc2)c2cc(C(=O)Nc3ccc(F)cc3)ccc21 | 45.3 | 24.3 | 7.07 | 83.8 | –
COc1cccc2c1C(=O)c1c(O)c3c(c(O)c1C2=O)C[C@@](O)(C(=O)CO)C[C@@H]3O[C@H]1C[C@H](N)[C@H](O)[C@H](C)O1 [DOXORUBICIN] | 1.07 | 1.44 | 14 | 2.35 | –
Cn1cc(CNCCc2ccc(-c3ccccc3)cc2)c2cc(CNc3ccc(F)cc3)ccc21 | 2.08 | 14.7 | 76.4 | 72 | –
O=C(Nc1ccc(F)cc1)c1ccc2c(ccn2Cc2ccc(-c3ccccc3)cc2)c1 | 8.36 | 67.6 | 10.8 | > 100 | –
COc1cc(CN(C)Cc2cn(C)c3ccc(C(=O)Nc4ccc(F)cc4)cc23)cc(OC)c1OC | 6.45 | 4.21 | 13.2 | 42.1 | –
CC(=O)N(CCc1ccc(-c2ccccc2)cc1)Cc1cn(C)c2ccc(C(=O)Nc3ccc(C)cc3)cc12 | > 100 | > 100 | 12.8 | > 100 | –
CN(CCc1ccccc1)Cc1cn(C)c2ccc(C(=O)Nc3ccc(F)cc3)cc12 | 47.7 | 19.6 | 14.7 | > 100 | –
Cn1cc(CN2CCN(Cc3ccc(-c4ccccc4)cc3)CC2)c2cc(C(=O)Nc3ccc(F)cc3)ccc21 | 37.5 | 39.7 | 63.9 | > 100 | –
CN1CCN(Cc2cn(C)c3ccc(C(=O)Nc4ccc(F)cc4)cc23)CC1 | 89.2 | 24.8 | 24.7 | > 100 | –

The next lines start with results.

IC50 (PC-3) [µM] | IC50 (HeLa [1]) [µM] | IC50 (MCF7) [µM] | IC50 (Jurkat) [µM] | SMILES | also measured
30.8 | 16.6 | 20.7 | 51.8 | CN(CCc1ccc(Oc2ccccc2)cc1)Cc1cn(C)c2ccc(C(=O)Nc3ccc(F)cc3)cc12 | –
> 100 | 23.6 | 54.4 | > 100 | CN(Cc1ccc(-c2ccccc2)cc1)Cc1cn(C)c2ccc(C(=O)Nc3ccc(F)cc3)cc12 | –
56 | 9.98 | 37 | 35.6 | CN(Cc1ccc(Oc2ccccc2)cc1)Cc1cn(C)c2ccc(CNc3ccc(F)cc3)cc12 | –
84.3 | 8.18 | 20.2 | 34.4 | CN(Cc1ccc(-c2ccccc2)cc1)Cc1cn(C)c2ccc(CNc3ccc(F)cc3)cc12 | –
9.41 | 0.95 | 4.55 | 3.68 | CN(Cc1cccc2ccccc12)Cc1cn(C)c2ccc(CNc3ccc(F)cc3)cc12 | IC50 (IEC-6 [2]; Rattus norvegicus, IEC-6): 590 nM
72.7 | 2.92 | 2.15 | 26.5 | CN(CCc1ccc(-c2ccccc2)cc1)Cc1cn(C)c2ccc(CNc3ccc(F)cc3)cc12 | –
